In ChEMBL document CHEMBL1147192, “New GABA-modulating 1,2,4-oxadiazole derivatives and their anticonvulsant activity” (Eur J Med Chem, 2007):
pKi: −log10 of the molar value.

What was measured:
Rattus norvegicus [1] = assay: Neurotoxicity in orally dosed Wistar rat after 1 hr by RotoRod test; assay type: toxicity, organism-based; conditions: in vivo, po
Rattus norvegicus [2] = assay: Anticonvulsant activity in orally dosed Wistar rat after 1 hr by PTZ test; assay type: functional; conditions: po
Rattus norvegicus [3] = assay: Anticonvulsant activity in orally dosed Wistar rat after 2 hrs by MES test; assay type: functional; conditions: po
[4] = Potentiation of GABA-induced current in rat cortical neurons at 100 uM by whole-cell patch clamp technique; assay type: functional
[5] = Inhibition of voltage dependent sodium current in rat cortical neurons at 100 uM by whole-cell patch clamp technique; assay type: functional
Rattus norvegicus [6] = assay: Anticonvulsant activity in orally dosed Wistar rat after 1 hr by MES test; assay type: functional; conditions: po
[7] = Potentiation of GABA-induced current in rat cortical neurons at 10 uM by whole-cell patch clamp technique; assay type: functional
Rattus norvegicus [8] = species: Rattus norvegicus; conditions: Membrane, 10 uM
Rattus norvegicus [9] = assay: Anticonvulsant activity in orally dosed Wistar rat after 2 hrs by PTZ test; assay type: functional; conditions: po
Rattus norvegicus [10] = assay: Anticonvulsant activity in orally dosed Wistar rat after 0.5 hrs by MES test; assay type: functional; conditions: po
Rattus norvegicus [11] = assay: Neurotoxicity in orally dosed Wistar rat after 0.5 hrs by RotoRod test; assay type: toxicity, organism-based; conditions: in vivo, po
[12] = Displacement of [3H]flunitrazepam from benzodiazepine receptor in rat neuronal membranes at 10 uM
Rattus norvegicus [13] = assay: Anticonvulsant activity in orally dosed Wistar rat after 0.5 hr by PTZ test; assay type: functional; conditions: po
Rattus norvegicus [14] = assay: Neurotoxicity in orally dosed Wistar rat after 2 hrs by RotoRod test; assay type: toxicity, organism-based; conditions: in vivo, po
[15] = Inhibition of voltage dependent sodium current in rat cortical neurons at 10 uM by whole-cell patch clamp technique; assay type: functional
Rattus norvegicus [16] = assay: Anticonvulsant activity in orally dosed Wistar rat after 3 hrs by PTZ test; assay type: functional; conditions: po
Rattus norvegicus [17] = assay: Anticonvulsant activity in orally dosed Wistar rat after 4 hrs by MES test; assay type: functional; conditions: po
Rattus norvegicus [18] = assay: Anticonvulsant activity in orally dosed Wistar rat after 0.3 hrs by PTZ test; assay type: functional; conditions: po
Rattus norvegicus [19] = assay: Neurotoxicity in orally dosed Wistar rat after 4 hrs by RotoRod test; assay type: toxicity, organism-based; conditions: in vivo, po

Structure (SMILES) | ED50 (Rattus norvegicus [1]) [mg/kg] | ED50 (Rattus norvegicus [2]) [mg/kg] | Activity [4] [%] | inhibition at 100 µM [5] [%] | Activity [7] [%] | inhibition (Rattus norvegicus [8]) [%] | further results
Cc1ccc(-c2noc(Cn3cncn3)n2)cc1 | 171 | 76.5 | – | – | – | – | ED50 (Rattus norvegicus [3]): > 70 mg/kg
c1ccc(-c2nc(Cn3cncn3)no2)cc1 | 335 | 25.5 | 210 | 9 | 131 | -3.1 | ED50 (Rattus norvegicus [6]): 14.6 mg/kg
Clc1ccc(-c2noc(Cn3ccnc3)n2)cc1 | > 500 | – | 298 | 72 | 103 | 0.2 | –
Clc1ccc(-c2noc(Cn3cncn3)n2)cc1 | < 100 | – | 553 | 31 | 141 | -8 | ED50 (Rattus norvegicus [6]): 21.8 mg/kg; ED50 (Rattus norvegicus [9]): 29.5 mg/kg; ED50 (Rattus norvegicus [10]): 47.2 mg/kg
Fc1cccc(-c2nc(Cn3cncn3)no2)c1 | – | 73.9 | – | – | – | – | ED50 (Rattus norvegicus [11]): < 250 mg/kg
CN1C(=O)CN=C(c2ccccc2)c2cc(Cl)ccc21 [DIAZEPAM] | – | – | – | – | 216 | > 99 | pKi [12]: 8.17
Cc1cccc(-c2noc(Cn3cncn3)n2)c1 | 219 | – | 387 | 22 | 110 | -1.1 | ED50 (Rattus norvegicus [13]): 95.9 mg/kg
Fc1ccccc1-c1noc(Cn2cncn2)n1 | – | – | 191 | – | – | 2.2 | ED50 (Rattus norvegicus [14]): < 250 mg/kg; ED50 (Rattus norvegicus [9]): < 50 mg/kg; ED50 (Rattus norvegicus [3]): 44.3 mg/kg
c1ccc(-c2noc(Cn3ccnc3)n2)cc1 | – | – | 134 | 83 | – | 0.6 | inhibition at 10 µM [15]: 30%; ED50 (Rattus norvegicus [3]): 5.8 mg/kg
Cc1cccc(-c2nc(Cn3cncn3)no2)c1 | – | – | – | – | – | – | ED50 (Rattus norvegicus [11]): > 50 mg/kg; ED50 (Rattus norvegicus [16]): > 50 mg/kg; ED50 (Rattus norvegicus [10]): < 50 mg/kg
Fc1cccc(-c2noc(Cn3cncn3)n2)c1 | 128 | 39.2 | 212 | 12 | – | -1.6 | ED50 (Rattus norvegicus [6]): 26.2 mg/kg
c1ccc(-c2noc(Cn3cncn3)n2)cc1 | – | – | 286 | 8 | – | 2.7 | ED50 (Rattus norvegicus [17]): 13.1 mg/kg; ED50 (Rattus norvegicus [14]): 77 mg/kg; ED50 (Rattus norvegicus [9]): 37 mg/kg
Clc1ccc(-c2nc(Cn3cncn3)no2)cc1 | – | > 100 | – | – | – | – | –
Fc1ccc(-c2nc(Cn3cncn3)no2)cc1 | – | – | – | – | – | – | ED50 (Rattus norvegicus [18]): 15.2 mg/kg; ED50 (Rattus norvegicus [19]): < 150 mg/kg
